This note sets out measurements from US20260232578A1, “COMPOSITIONS AND METHODS FOR TRANSMUCOSAL ABSORPTION” (Tonix Pharma Limited, priority 2012, published 2026).

Data set [1] can be described thus: Stress stability at 50° C., purity profile. It counts as physicochemical. As for the experimental part: In order to evaluate the stability of the formulations described above, prototype A, B, C, D were maintained under the 50° C. stress condition for 30 days.
In data set [2] the target is T1, adrenergic alpha-2A receptor (Alpha2A) (Homo sapiens, UniProt P08913).
T1 construct: expressed in transfected cells
T1 sequence (P08913 1-465): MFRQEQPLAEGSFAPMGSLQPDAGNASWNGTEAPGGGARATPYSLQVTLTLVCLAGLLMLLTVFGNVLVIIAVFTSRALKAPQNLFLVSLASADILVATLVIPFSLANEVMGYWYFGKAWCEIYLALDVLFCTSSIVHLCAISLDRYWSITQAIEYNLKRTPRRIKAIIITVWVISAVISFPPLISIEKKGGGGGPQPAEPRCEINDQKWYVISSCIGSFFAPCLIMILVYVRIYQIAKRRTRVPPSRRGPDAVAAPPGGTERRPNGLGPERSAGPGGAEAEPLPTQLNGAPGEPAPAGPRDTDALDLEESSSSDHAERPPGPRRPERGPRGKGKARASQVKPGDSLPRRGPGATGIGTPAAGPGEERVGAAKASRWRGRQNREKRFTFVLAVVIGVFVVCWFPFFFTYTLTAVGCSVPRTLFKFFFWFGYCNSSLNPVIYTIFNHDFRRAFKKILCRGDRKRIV
In words: Equilibrium receptor binding, recombinant human receptor.

A further data set has as its target T2, 5-HT1A receptor (Homo sapiens, UniProt P08908).
T2 construct: expressed in transfected cells
T2 sequence (P08908 1-422): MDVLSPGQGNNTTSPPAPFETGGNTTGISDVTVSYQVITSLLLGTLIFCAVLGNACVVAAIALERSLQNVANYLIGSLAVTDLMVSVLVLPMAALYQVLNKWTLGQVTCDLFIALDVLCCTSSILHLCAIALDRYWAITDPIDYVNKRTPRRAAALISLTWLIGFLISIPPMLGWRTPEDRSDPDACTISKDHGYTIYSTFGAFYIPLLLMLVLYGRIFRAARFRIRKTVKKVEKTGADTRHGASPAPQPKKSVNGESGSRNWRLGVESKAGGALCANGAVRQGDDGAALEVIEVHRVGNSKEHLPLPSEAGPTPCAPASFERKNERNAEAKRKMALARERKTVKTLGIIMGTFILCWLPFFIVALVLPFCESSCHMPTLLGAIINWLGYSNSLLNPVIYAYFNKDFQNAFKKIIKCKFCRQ
Described as above.

In the next data set the target is T3, 5-HT2C receptor (Homo sapiens, UniProt P28335).
T3 construct: expressed in transfected cells
T3 sequence (P28335 33-458): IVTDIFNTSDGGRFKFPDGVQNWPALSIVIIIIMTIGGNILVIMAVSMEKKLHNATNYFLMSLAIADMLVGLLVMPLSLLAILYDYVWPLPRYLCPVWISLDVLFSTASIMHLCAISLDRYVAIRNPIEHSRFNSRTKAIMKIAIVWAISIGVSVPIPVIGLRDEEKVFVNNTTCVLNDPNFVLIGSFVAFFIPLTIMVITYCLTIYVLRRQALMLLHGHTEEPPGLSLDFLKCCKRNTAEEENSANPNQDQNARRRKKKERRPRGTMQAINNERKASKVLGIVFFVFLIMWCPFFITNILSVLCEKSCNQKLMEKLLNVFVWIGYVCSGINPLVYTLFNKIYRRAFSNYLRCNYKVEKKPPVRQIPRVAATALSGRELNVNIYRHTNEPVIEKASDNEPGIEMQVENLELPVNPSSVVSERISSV
The description is as above.

Data set [3] concerns the target T4, adrenergic alpha-2C receptor (Alpha2C) (Homo sapiens, UniProt P18825).
T4 construct: expressed in transfected cells
T4 sequence (P18825 1-462): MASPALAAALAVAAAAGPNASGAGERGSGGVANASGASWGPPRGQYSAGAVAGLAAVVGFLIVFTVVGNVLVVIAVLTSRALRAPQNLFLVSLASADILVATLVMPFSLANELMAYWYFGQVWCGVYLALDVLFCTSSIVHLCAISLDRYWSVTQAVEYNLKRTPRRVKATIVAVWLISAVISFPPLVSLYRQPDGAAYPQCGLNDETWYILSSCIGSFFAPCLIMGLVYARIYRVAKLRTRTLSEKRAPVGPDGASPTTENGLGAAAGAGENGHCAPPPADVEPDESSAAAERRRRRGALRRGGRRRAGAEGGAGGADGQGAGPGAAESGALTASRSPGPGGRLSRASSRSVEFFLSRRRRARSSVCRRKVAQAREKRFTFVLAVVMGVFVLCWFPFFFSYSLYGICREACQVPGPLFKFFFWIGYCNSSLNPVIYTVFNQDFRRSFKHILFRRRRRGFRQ
Described as above.

The next data set deals with muscarinic M2 receptor (Homo sapiens, UniProt P08172). The data set is described as above. Also noted: expressed in transfected cells.
muscarinic M2 receptor, sequence (P08172 whole entry): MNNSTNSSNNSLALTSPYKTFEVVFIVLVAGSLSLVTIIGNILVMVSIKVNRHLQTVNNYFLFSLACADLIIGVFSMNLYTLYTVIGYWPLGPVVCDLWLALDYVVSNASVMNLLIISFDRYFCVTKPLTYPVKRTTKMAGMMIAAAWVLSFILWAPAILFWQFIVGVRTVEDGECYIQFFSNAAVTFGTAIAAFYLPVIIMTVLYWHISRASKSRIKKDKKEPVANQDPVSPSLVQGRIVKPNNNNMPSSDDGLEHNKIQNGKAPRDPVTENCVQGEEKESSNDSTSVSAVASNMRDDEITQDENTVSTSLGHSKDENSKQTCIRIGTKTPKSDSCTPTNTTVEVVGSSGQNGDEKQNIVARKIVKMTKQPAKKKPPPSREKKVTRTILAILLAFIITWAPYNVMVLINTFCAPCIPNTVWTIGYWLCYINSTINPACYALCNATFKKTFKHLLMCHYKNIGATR
Where [4] appears, read: T0, samples stored at room temperature.
The mark [5] stands for this setting: T15days, active ingredient without excipients.

Structures are written as SMILES. Counter-ions that a name gives are not always drawn.

As for `CN(C)CCC=C1c2ccccc2C=Cc2ccccc21` [Cyclobenzaprine HCl (Dipharma)], in data set [1] (setting [4]), the “Impurity 1 (Dibenzosuberenone, RT = about 56′)” value is on record as “Absent”; the “Impurity 2 (Carbinole, RT = about 6′)” value is recorded as “Absent”; the “Impurity 4 (Amitriptyline, RT = about 15′)” value is given as “Absent”; the “Total Impurities” value came out at 0.005%. Further, in data set [1] (setting [4]), the “Unknown 1 (RT = about 16′)” value turned out to be 0.005%, the “Unknown 2 (RT = about 17.5′)” value was “Absent” and the “Unknown 3 (RT = about 7.5′)” value turned out to be 0.028%. Also, in data set [1] (setting [5]), the “Impurity 1 (Dibenzosuberenone, RT = about 56′)” value is reported as “Absent”; the “Impurity 2 (Carbinole, RT = about 6′)” value is recorded as “Absent”; the “Impurity 4 (Amitriptyline, RT = about 15′)” value is “Absent”; the “Total Impurities” value is 0.003%. Besides, in data set [1] (setting [5]), the “Unknown 1 (RT = about 16′)” value is reported as “Absent”, the “Unknown 2 (RT = about 17.5′)” value is on record as 0.003% and the “Unknown 3 (RT = about 7.5′)” value was found to be 0.008%.

Regarding `CN(C)CCC=C1c2ccccc2C=Cc2ccccc21` [Cyclobenzaprine HCl (Sifavitor)], in data set [1] (setting [4]), the “Impurity 1 (Dibenzosuberenone, RT = about 56′)” value is recorded as “Absent”; the “Impurity 2 (Carbinole, RT = about 6′)” value is listed as “Absent”; the “Impurity 4 (Amitriptyline, RT = about 15′)” value is recorded as “Absent”; the “Total Impurities” value is listed as 0.020%. Moreover, in data set [1] (setting [4]), the “Unknown 1 (RT = about 16′)” value was 0.020%, the “Unknown 2 (RT = about 17.5′)” value is “Absent” and the “Unknown 3 (RT = about 7.5′)” value is listed as “Absent”. In data set [1] (setting [5]), the “Impurity 1 (Dibenzosuberenone, RT = about 56′)” value was “Absent”; the “Impurity 2 (Carbinole, RT = about 6′)” value is on record as “Absent”; the “Impurity 4 (Amitriptyline, RT = about 15′)” value is given as “Absent”; the “Total Impurities” value is given as 0.019%. Also, in data set [1] (setting [5]), the “Unknown 1 (RT = about 16′)” value is “Absent”, the “Unknown 2 (RT = about 17.5′)” value is listed as 0.019% and the “Unknown 3 (RT = about 7.5′)” value was “Absent”.

As for `CN(C)CCC=C1c2ccccc2CCc2ccccc21` [amitriptyline, 3-(10,11-dihydro-5H-dibenzo [a,d]cycloheptene-5-ylidene)-N,N-dimethyl-1-propanamine], the Ki worked out at 250 nM in data set [2], 220 nM on 5-HT1A receptor, 28 nM at 5-HT2C receptor and 14 nM in data set [3].

As to `CNCCC=C1c2ccccc2CCc2ccccc21` [nortriptyline], the Ki amounted to 100 nM on 5-HT1A receptor and 140 nM on muscarinic M2 receptor.
